# Experimental data reported in paper PMC3716995, “A phase I study of ridaforolimus in adult Chinese patients with advanced solid tumors” (Journal of Hematology & Oncology, 2013).
# Where “and” joins values, the source holds several entries; their conditions need not be identical. Identical values can stand only once. Like-named read-outs stand apart in the source and are kept apart here. Marks after values point to notes of the source that are not given here.
# Assays:
# [1] = Whole blood pharmacokinetics of oral ridaforolimus 40 mg in Chinese patients (HPLC-MS/MS, WinNonlin); type: in vivo; conditions: for AUC(0-t): read-out: AUC0-24; for concentration at 24 h: read-out: C24hr
# Procedure: (§1) The eligible patients were given the following treatment regimen: a single oral dose of 40 mg of ridaforolimus on Day 1; and then, the treatment started from Day 8 with an oral dose of 40 mg of ridaforolimus for five consecutive days (on Day 8 through Day 12) followed by two day's off (Day 13 and 14). The treatment repeated every 7 days. Four treatment weeks was considered one treatment cycle. Sample blood for PK analysis were collected at the following times: on Day 1 prior to drug administration and for 168 h post-dose (at 1, 2, 3, 4, 6, 8, 24, 72, 96, and 168 h post-treatment); on Day 8 and Day 15 prior to drug administration; on Day 19 prior to drug administration and for 24 h post-dose (at 1, 2, 3, 4, 6, 8 and 24 h post-treatment). We monitored patients’ vital signs and conducted laboratory and physical examinations on trial Day 1, 8 and 19.
# Ridaforolimus concentration in both whole blood and plasma was analyzed using high-performance liquid chromatography with tandem mass spectrometric detection set at a lower limit of quantification of 0.2 ng/mL (Wuxi AppTec, Shanghai, China). Pharmacokinetic analyses were performed with WinNonlin, version 5.2.1 (Pharsight Corp., St. Louis, MO, USA). AUC0-∞, AUC0-24hr, C24hr, and Cmax were determined for each patient on Day 1 and on Day 19, if applicable, and the geometric means as well as the 95% CI were calculated. The accumulation of ridaforolimus was assessed for Cmax and for AUC0-24hr (geometric mean ratio Day 19 / Day 1 and 90% CI).
# [2] = Safety and tolerability (adverse events, CTCAE v4.0) of oral ridaforolimus 40 mg in Chinese patients; type: in vivo
# Procedure: as §1
# (§2) The patients continued to receive 40 mg of ridaforolimus for five consecutive days followed by two day's off until disease progression or intolerability. Averse events were monitored every four weeks and AEs were graded according to the Common Terminology Criteria for Adverse Events version 4.0. We also monitored patients’ vital signs and conducted laboratory and physical examinations every four weeks. Radiographic studies for disease assessment were conducted at baseline and again after every two treatment cycles (thus, every eight weeks). Tumor responses were assessed according to the Response Evaluation Criteria for Solid Tumors 1.1 guidelines. We conducted a full safety assessment in all patients four weeks after the administration of the last treatment dose.
# advanced sarcoma = tested on: advanced sarcoma; set-up: method as in earlier work; conditions: maintenance therapy, cited from earlier work
# [3] = tested on: treatment-refractory advanced or relapsed solid tumors; test: Tumor response (RECIST 1.1) in Chinese patients; type: in vivo
# Procedure: as §2
# [4] = set-up: method as in PMID 18202410, PMID 19228743, PMID 22143378; conditions: Caucasians and Japanese patients, cited from earlier work
# [5] = set-up: method as in PMID 22143378; conditions: Japanese patients, cited from earlier work
# [6] = set-up: method as in internal PK data; conditions: Caucasian patients, ref internal PK data, cited from earlier work
# [7] = Day 1, single oral dose 40 mg, whole blood, median
# [8] = human, whole blood, po, 40 mg, Day 1, single oral dose 40 mg, whole blood, geometric mean
# [9] = Grade 3 non-serious adverse event
# [10] = Grade 4 non-serious adverse event
# [11] = N = 15, not considered drug-related by the investigator
# [12] = non-serious adverse event, all grades, N = 15
# [13] = single dose, geometric mean (95% CI)
structure (smiles),measurement,setting,value
"CO[C@H]1C[C@@H]2CC[C@@H](C)[C@@](O)(O2)C(=O)C(=O)N2CCCC[C@H]2C(=O)O[C@H]([C@H](C)C[C@@H]2CC[C@@H](OP(C)(C)=O)[C@H](OC)C2)CC(=O)[C@H](C)/C=C(\C)[C@@H](O)[C@@H](OC)C(=O)[C@H](C)C[C@H](C)/C=C/C=C/C=C/1C [ridaforolimus, Ridaforolimus]",Linearity of blood PKs,[1]; AUC0-24hr at steady state lower than AUC0-∞ after single dose,non-linear
same,Apparent t1/2 (elimination half-life),"[1]; Day 1, single oral dose 40 mg, whole blood, harmonic mean",52.9 h
same,Tlag (absorption lag time),[1]; [7],2 h and 2.00 h
same,Tmax,[1]; [7],4.03 h
same,Absorption after oral administration,"[1]; human, in vivo, po",slowly absorbed
same,AUC(0-t),[1]; [8],1850 ng·h/mL
same,concentration at 24 h,[1]; [8],34.8 ng/mL
same,Cmax,"[1]; human, whole blood, po, 40 mg, Day 1, single oral dose 40 mg, whole blood, geometric mean, read-out: Cmax",210 ng/mL
same,half-life,"[1]; human, whole blood, po, 40 mg, Day 1, single oral dose 40 mg, whole blood, harmonic mean, read-out: Apparent t1/2 (elimination half-life) (converted)",2.21 days
same,Tmax,"[1]; human, whole blood, po, 40 mg, Day 1, single oral dose 40 mg, whole blood, median, read-out: Tmax",4 h
same,Cmax,"[1]; human, whole blood, po, 40 mg, Day 1, single oral dose 40 mg, read-out: Cmax, median value",192 ng/mL
same,AUC(0-t),"[1]; human, whole blood, po, 40 mg, Day 19, multiple once daily oral 40 mg (steady state), whole blood, geometric mean",2010 ng·h/mL
same,concentration at 24 h,"[1]; human, whole blood, po, 40 mg, Day 19, multiple once daily oral 40 mg, whole blood, geometric mean",49.7 ng/mL
same,Cmax,"[1]; human, whole blood, po, 40 mg, Day 19, multiple once daily oral 40 mg, whole blood, geometric mean, read-out: Cmax",167 ng/mL
same,Tmax,"[1]; human, whole blood, po, 40 mg, Day 19, multiple once daily oral 40 mg, whole blood, median, read-out: Tmax",4 h
same,Cmax,"[1]; human, whole blood, po, 40 mg, Day 19, multiple once daily oral 40 mg, read-out: Cmax, median value",203 ng/mL
same,AUC(0-inf),"[1]; human, Day 1, single oral dose 40 mg, whole blood, geometric mean",3650 ng·h/mL
same,"Anaemia Grade 3, number of patients",[2]; [9],2/15
same,"Anaemia Grade 3, percentage of patients",[2]; [9],13.3%
same,"Constipation Grade 3, number of patients",[2]; [9],1/15
same,"Constipation Grade 3, percentage of patients",[2]; [9],6.7%
same,"Fatigue Grade 3, number of patients",[2]; [9],2/15
same,"Fatigue Grade 3, percentage of patients",[2]; [9],13.3%
same,"Gamma-glutamyltransferase increase Grade 3, number of patients",[2]; [9],1/15
same,"Gamma-glutamyltransferase increase Grade 3, percentage of patients",[2]; [9],6.7%
same,"Platelet count decrease Grade 3, number of patients",[2]; [9],1/15
same,"Platelet count decrease Grade 3, percentage of patients",[2]; [9],6.7%
same,"Proteinuria Grade 3, number of patients",[2]; [9],1/15
same,"Proteinuria Grade 3, percentage of patients",[2]; [9],6.7%
same,"Stomatitis Grade 3, number of patients",[2]; [9],2/15
same,"Stomatitis Grade 3, percentage of patients",[2]; [9],13.3%
same,"Anaemia Grade 4, number of patients",[2]; [10],1/15
same,"Anaemia Grade 4, percentage of patients",[2]; [10],6.7%
same,"Platelet count decrease Grade 4, number of patients",[2]; [10],1/15
same,"Platelet count decrease Grade 4, percentage of patients",[2]; [10],6.7%
same,Patients who discontinued as a result of drug-related fatigue,[2]; N = 15,one
same,Patients who discontinued as a result of drug-related interstitial lung disease,[2]; N = 15,three
same,Patients who discontinued as a result of drug-related stomatitis,[2]; N = 15,one
same,Patients who discontinued due to drug-related AEs,[2]; N = 15,five
same,Patients who discontinued treatment as a result of AEs,[2]; N = 15,six
same,"Patients who developed serious AEs, number",[2]; [11],Four
same,"Patients who developed serious AEs, percentage",[2]; [11],26.7%
same,Patients who developed Grade 2 interstitial pneumonitis,[2]; all recovered after interruption and glucocorticoids,Three
same,Non-serious AEs considered Grade 3,[2]; fifteen patients,11
same,Non-serious AEs considered Grade 4,[2]; fifteen patients,2
same,Non-serious AEs deemed by the investigator as drug related,[2]; fifteen patients,111
same,Total number of non-serious AEs reported,[2]; fifteen patients,135
same,Grade 3/4 drug-related AEs,"[2]; human, in vivo","anemia, stomatitis, fatigue, thrombocytopenia, constipation, gamma glutamyltransferase increase, and proteinuria"
same,Most common drug-related adverse events (occurred in ≥40% of patients),"[2]; human, in vivo","stomatitis, proteinuria, leukopenia, hyperglycemia, and pyrexia"
same,"ALT increase, number of patients",[2]; [12],3
same,"ALT increase, percentage of patients",[2]; [12],20%
same,"Anemia, number of patients",[2]; [12],5
same,"Anemia, percentage of patients",[2]; [12],33.3%
same,"Blood alkaline phosphatase increased, number of patients",[2]; [12],4
same,"Blood alkaline phosphatase increased, percentage of patients",[2]; [12],26.7%
same,"Blood cholesterol increased, number of patients",[2]; [12],5
same,"Blood cholesterol increased, percentage of patients",[2]; [12],33.3%
same,"Fatigue, number of patients",[2]; [12],4
same,"Fatigue, percentage of patients",[2]; [12],26.7%
same,"Gamma-glutamyltransferase increased, number of patients",[2]; [12],6
same,"Gamma-glutamyltransferase increased, percentage of patients",[2]; [12],40%
same,"Hyperglycaemia, number of patients",[2]; [12],7
same,"Hyperglycaemia, percentage of patients",[2]; [12],46.7%
same,"Hypoalbuminaemia, number of patients",[2]; [12],5
same,"Hypoalbuminaemia, percentage of patients",[2]; [12],33.3%
same,"Interstitial lung disease, number of patients",[2]; [12],3
same,"Interstitial lung disease, percentage of patients",[2]; [12],20%
same,"Platelet count decrease, number of patients",[2]; [12],5
same,"Platelet count decrease, percentage of patients",[2]; [12],33.3%
same,"Proteinuria, number of patients",[2]; [12],11
same,"Proteinuria, percentage of patients",[2]; [12],73.3%
same,"Pyrexia, number of patients",[2]; [12],6
same,"Pyrexia, percentage of patients",[2]; [12],40%
same,"Stomatitis, number of patients",[2]; [12],12
same,"Stomatitis, percentage of patients",[2]; [12],80%
same,"White blood cell count decrease, number of patients",[2]; [12],8
same,"White blood cell count decrease, percentage of patients",[2]; [12],53.3%
same,Tolerability,"[2]; once a day oral dose of 40 mg, Chinese patients",generally well tolerated
same,"Changes from baseline over time in serum cholesterol, serum glucose, serum triglycerides","[2]; summary statistics, an elevation from baseline was observed",no clinically significant elevations
same,Median PFS,"advanced sarcoma; vs 14.6 weeks for placebo, P = 0.0001",17.7 weeks
same,Median overall survival at data cut-off (386 deaths),"advanced sarcoma; vs 83.4 weeks for placebo, P = 0.23",93.3 weeks
same,Patients who discontinued treatment because of progressive disease,[3]; N = 15,Eight
same,Partial or complete responses,[3]; RECIST 1.1,absence of partial or complete responses
same,Tolerability,[4]; oral 40mg per day for five consecutive days followed by two day's off,well tolerated
same,Most important dose limiting toxicity,[4]; oral ridaforolimus,stomatitis
same,AUC0-24,[5]; multiple dose,"2,120 (1,320, 3,410) ng.hr/ml"
same,Cmax,[5]; multiple dose,"188 (116, 306) ng/ml"
same,Tmax,[5]; multiple dose,"4.04 (4.00, 8.15) hr"
same,AUC0-24,[5]; [13],"1,470 (914, 2,360) ng.hr/ml"
same,Cmax,[5]; [13],"187 (115, 304) ng/ml"
same,t1/2,"[5]; single dose, harmonic mean (jack-knife SD)","55.8 (50.95, 60.65)^c hr"
same,Tmax,"[5]; single dose, median (min, max)","4.00 (4.00, 8.00) hr"
same,Accumulation ratio AUC0-24,[5]; geometric mean ratio (90% CI),"1.44 (1.05, 1.99)"
same,Accumulation ratio Cmax,[5]; geometric mean ratio (90% CI),"1.01 (0.674, 1.50)"
same,AUC0-24,[6]; multiple dose,"1882(1630, 2180) ng.hr/ml"
same,Cmax,[6]; multiple dose,"160(136, 188) ng/ml"
same,AUC0-24,[6]; [13],"992(801, 1230) ng.hr/ml"
same,Cmax,[6]; [13],"112(84.6, 148) ng/ml"
same,t1/2,"[6]; single dose, harmonic mean (pseudo SD)",42.0(17.7)^d hr
same,Tmax,"[6]; single dose, median (min, max)","2.79(1.42, 9.78) hr"
same,Accumulation ratio AUC0-24,[6]; geometric mean ratio (90% CI),"1.90(1.63, 2.21)"
same,Accumulation ratio Cmax,[6]; geometric mean ratio (90% CI),"1.43(1.22, 1.68)"
